Patent publication US10434097B1, “Methods and compositions for treating hearing disorders” (GATEWAY BIOTECHNOLOGY, INC., priority 2015, dated 2019)

Experiments:
CBA/CaJ mice [1] = experiment: Accelerating rotarod, chronic TET use (Example 1); assay type: in vivo; conditions: 120 mg/kg i.p. for five days, two-month old mice, two-way ANOVA p>0.05
Description: CBA/CaJ mice were purchased from The Jackson Laboratory. One to five mice were housed per cage with food and water available in a noise-controlled environment on a 12-hr light/dark cycle with light onset at 6:00 a.m. TET was obtained from Sigma Chemical Co. (St. Louis, Mo.). The drug solution was injected (i.p.) for the treated groups. Control mice were given saline injection only. The amount of water/food intake was monitored daily and body weight was monitored weekly. Drug neurotoxic effects on sensory motor coordination were assessed on two-month old CBA/CaJ mice using the accelerating rotarod method. Mice were trained on the task for 5 days in order to achieve stable performance before either being treated by intraperitoneal (i.p.) injections with TET at 120 mg/kg body weight (n=5) or saline (n=6).

CBA/CaJ mice [2] = experiment: Early noise-induced accelerated ARHL model, ABR thresholds (Example 2); assay type: in vivo; conditions: three months after noise exposure (4-25 kHz, 110 dB SPL, 30 min); TET three days before and two days after exposure
Description: Currently, no FDA-approved medications against ARHL are available. Two-month old CBA/CaJ mice were exposed to octave band (4-25 kHz) noise at 110 dB SPL for 30 minutes. This is a well-established noise model for our drug screenings since the noise exposure leads to dramatic acute and permanent hearing threshold shifts 24 hours and two weeks post-exposure respectively. In addition, apparently accelerated age-related increase in the auditory brainstem response (ABR) thresholds were observed three months after the noise exposure in the control group (n=6), up to approximately 50 dB at 40 kHz. Mice treated with TET (n=5) three days before and two days after the noise exposure had only about an increase of 10 dB at 40 kHz three months after exposure (FIG. 2). […] Thus, TET treatment at a young age could prevent accelerated age-related hearing loss due to early noise exposure.

CBA/CaJ mice [3] = experiment: Accelerating rotarod test, motor coordination after single injection (Example 3); assay type: in vivo; conditions: 1 and 3 h after injection
Description: FIG. 3 illustrates the effects of TET on mouse rotarod performance test. CBA/CaJ mice were tested before TET treatment (baseline) and one and three hours (1 h, 3 h) after TET treatment (i.p.). The latency to fall were shown as mean+/−S.E.M.
TET effects on motor coordination were evaluated on the accelerating rotarod test. the rotating speed was increased with an acceleration rate of 10 rpm/min. The length of time that each animal was able to stay on the rod was recorded as the latency to fall. TET was dissolved in 0.1 N HCl at a concentration of 50 mg/ml, and the pH was adjusted to 6.8-7.0 before diluted in saline. Mice were injected intraperitoneally (i.p.) with saline (baseline) or different TET dosages. Rotarod performance was evaluated at 1 and 3 h after injection (FIG. 3). […] No significant gender effect was detected at either time point (p>0.1).

CBA/CaJ mice [4] = experiment: Prepulse inhibition (PPI), sensory gating (Example 4); assay type: in vivo
Description: TET effects on sensory gating were evaluated using a prepulse inhibition (PPI) procedure. Mice were placed in a plastic restrainer situated on a plate with a pressure sensor. Any animal motion was detected by the sensor which measured its amplitude. TET at various dosages was injected (i. p.) 1 h before the test. For this study, CBA/CaJ mice were divided into four groups: control with saline injection only (n=6; 2 males), TET at 30 mg/kg (n=6; 3 males), 60 mg/kg (n=10; 5 males) and 120 mg/kg (n=6; 2 males). For all groups, the ratio between the PPI and startle amplitude was measured (FIG. 4). […] Thus, TET at 120 mg/kg has no toxic effects on sensory gating in the CBA/CaJ mouse.

C57BL/6J mice = experiment: Rodent avoidance (shuttle box) test, memory (Example 5); assay type: in vivo
Description: FIG. 5 illustrates the effects of TET on mouse avoidance test. C57BL/6J mice were trained to move in the shuttle box when a sound was present. After 10 days of training, the latency of their avoidance test was recored and compared between the control (0) and drug-treated groups. Data are shown as means+/−S.E.M.
TET effects on memory were evaluated in mice with a rodent avoidance system, which consisted of two compartments of equal size (12.5 cm×20 cm×20 cm) that were connected by a door. Infrared LEDs were used to monitor rodent movement in each compartment. Sound cues were delivered via piezo tweeters in the ceiling of the compartments. Animals were trained to move from one compartment to the other upon presentation of the sound. […] The trials and responses were collected. Behavioral responses of mice with or without TET injection were measured after injection (FIG. 5). […] Again, one time administration of TET at 120 mg/kg had no significant toxic effects on memory in mice.

CBA/CaJ mice [5] = experiment: NIHL, white noise 110 dB SPL 30 min, ABR TTS, repeated TET (Example 6); assay type: in vivo; conditions: 120 mg/kg two days before and three days after noise
From the text: The average TTS across all test frequencies was 69.7 dB for the control group, 62.9 dB for the TET-treated group (about 6.8 dB of protection).

mice [6] = experiment: Salicylate-induced tinnitus model, SBAD Go/No-Go (Example 12); assay type: in vivo; conditions: before or after drug injections, at these dosages
From the text: The SBAD method with Go/No-Go paradigm was used for behavioral test in mice. For “Go” trial animals were trained to move from one compartment to another upon presentation of a sound. For “No-Go” trial animals were trained to stay in the compartment. Otherwise they received a shock. “Go” paradigm was used to monitor motor, motivation, and memory functions while “No-Go” was used to detect tinnitus-like behavior. A baseline was established for each mouse over three consecutive days. The same SBAD method was repeated one hour after intraperitoneal injections of sodium salicylate (400 mg/kg), and two hours after TET injections.

mice [7] = experiment: Noise-induced tinnitus model, SBAD Go/No-Go (Example 12); assay type: in vivo
From the text: The SBAD method with Go/No-Go paradigm was used for behavioral test in mice. For “Go” trial animals were trained to move from one compartment to another upon presentation of a sound. For “No-Go” trial animals were trained to stay in the compartment. Otherwise they received a shock. “Go” paradigm was used to monitor motor, motivation, and memory functions while “No-Go” was used to detect tinnitus-like behavior. One ear was exposed to a 120 dB noise (4-25 kHz) for two hours for this noise-induced tinnitus model. DPOAE and ABR were measured to monitor possible hearing loss in each ear 2 weeks after noise exposure. SBAD measurements were made 2, 4, and 8 weeks after noise exposure, and also after TET (0, 30, 60, 90 mg/kg) injection.

[8] = higher dosages; abdominal distension, diarrhea, dry eye, itching, hyperpigmentation, mildly elevated liver enzymes; resolve after discontinuance; cited from earlier work
[9] = rats, cited from earlier work
[10] = single oral administration 50 mg/kg

Question: For `COc1ccc2cc1Oc1ccc(cc1)C[C@H]1c3cc(c(OC)cc3CCN1C)Oc1c(OC)c(OC)cc3c1[C@H](C2)N(C)CC3` [TET, tetrandrine], which “rotarod latency to fall vs control” value (CBA/CaJ mice [1]) is on record?
Answer: not significantly different

Question: And the “increase of ABR threshold at 40 kHz” value (CBA/CaJ mice [2])?
Answer: ~10 dB

Question: And the “rotarod performance (latency to fall) vs baseline” value (CBA/CaJ mice [3]; 60 mg/kg i.p.)?
Answer: no significant side effects

Question: What about the “rotarod performance (latency to fall) vs baseline” value (CBA/CaJ mice [3]; 120 mg/kg i.p.) of the same molecule?
Answer: no significant side effects

Question: And the “ratio between PPI and startle amplitude, pre- vs post-treatment” value (from here on “ratio between PPI and startle amplitude”) (CBA/CaJ mice [4]; 30 mg/kg i.p. 1 h before test)?
Answer: No significant differences

Question: And the “ratio between PPI and startle amplitude” value (CBA/CaJ mice [4]; 60 mg/kg i.p. 1 h before test)?
Answer: No significant differences

Question: What about the “ratio between PPI and startle amplitude” value (CBA/CaJ mice [4]; 120 mg/kg i.p. 1 h before test) of the same molecule?
Answer: No significant differences

Question: What about the “avoidance test latency to cross vs control” value (C57BL/6J mice; 60 mg/kg) of the same molecule?
Answer: No significant difference

Question: And the “avoidance test latency to cross vs control” value (C57BL/6J mice; 120 mg/kg)?
Answer: No significant difference

Question: And the “avoidance test latency to cross vs control” value (C57BL/6J mice; 180 mg/kg, one-tailed t-test p<0.05)?
Answer: significant increase

Question: What about the “protection (TTS difference to control)” value (CBA/CaJ mice [5]) of the same molecule?
Answer: about 6.8 dB

Question: What about the “average TTS across all test frequencies” value (CBA/CaJ mice [5]; 24 hours after exposure, four month-old mice (control 69.7 dB)) of the same molecule?
Answer: 62.9 dB

Question: And the “"Go" testing (motor, motivation, memory functions)” value (mice [6])?
Answer: No significant changes

Question: And the “"Go" trials (motor, motivation, memory functions)” value (mice [7])?
Answer: No significant changes

Question: What about the “side effects in patients” value [8] of the same molecule?
Answer: limited side effects

Question: What about the “drug elimination from plasma” value ([9]; between 12.5 to 25 mg/kg) of the same molecule?
Answer: consistent with linear kinetics

Question: And the “area under the curve (AUC)” value [9, 10]?
Answer: 6279.2 ± 2411.5 ng·h/mL

Question: What about the “half time (T½)” value [9, 10] of the same molecule?
Answer: 20.6 ± 3.7 h

Question: What about the drug concentration-curve model [9] of the same molecule?
Answer: fits well with a two-compartment open model
